Among the test systems are UACC-62 melanoma; NCI-H522 lung; MDA-MB-435; HCC-2998 colon; LOX IMVI melanoma; U251 CNS; SK-MEL-5 melanoma; CAKI-1 renal; RPMI-8226 leukemia.
Assay in all cases: NCI-60 cell line screen, 48 h

Values joined by “and” are separate entries in the source; they are usually repeats but may differ in a detail not shown here. Identical values can stand only once.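 48-hour exposure; five concentrations; linearly interpolated endpoints. GI50: concentration for 50% inhibition of growth. TGI is the concentration that stops growth completely.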 Where only a bound is given, the exact number is not on record here.

As for `CCN(CC)CCOC(COc1cc(C)cc(C)c1)COc1cc(C)cc(C)c1`, the GI50 is 1.74 µM with UACC-62 melanoma; 4.51 µM with NCI-H522 lung; 1.64 µM in the test on MDA-MB-435; 1.72 µM in the test with HCC-2998 colon; 1.31 µM with LOX IMVI melanoma; 3.12 µM with U251 CNS. The GI50 in the test on SK-MEL-5 melanoma is 1.75 µM; with CAKI-1 renal, 3.7 µM. Besides, the TGI with UACC-62 melanoma came out at 4.61 µM; with NCI-H522 lung, 18.3 µM; in the test on MDA-MB-435, 3.63 µM; with HCC-2998 colon, 3.5 µM; in the test on LOX IMVI melanoma, 2.73 µM; in the test on U251 CNS, 11.5 µM. Moreover, the TGI with SK-MEL-5 melanoma turned out to be 3.19 µM; in the test with CAKI-1 renal it was 16 µM.
Consider `C/C=C/C=C/c1cc2cc3c(c(O)c2c(=O)[nH]1)C1(CC3)C(O)=c2c(=O)c3c(=O)cc(OC)c(=O)c=3c(=O)c2=C1O` (stereo unspecified), for which the TGI with UACC-62 melanoma is 4.34 µM and 14.7 µM; in the test with MDA-MB-435, 10.8 µM; with HCC-2998 colon, 1.33 µM and 11.3 µM; with LOX IMVI melanoma it was 9.5 µM; with U251 CNS, 0.851 µM and 5.59 µM; in the test with RPMI-8226 leukemia, 0.678 µM and 2.2 µM. For the same molecule, the GI50 with LOX IMVI melanoma is 1.27 µM.
Turning to `COC(=O)c1c(C)nc(C)c2c1C(=O)C(Br)=C(NCc1ccccc1)C2=O`, the GI50 in the test with UACC-62 melanoma was 1.41 µM; in the test with NCI-H522 lung, 2.25 µM; with MDA-MB-435, 1.86 µM; in the test with HCC-2998 colon, 3.4 µM; with LOX IMVI melanoma it was 2.45 µM; with U251 CNS, 2.74 µM. Also, the values for the GI50 in the test with RPMI-8226 leukemia, in the test with SK-MEL-5 melanoma and in the test with CAKI-1 renal were 3.24 µM, 1.47 µM and 5.66 µM, respectively. The TGI in the test on UACC-62 melanoma came to 2.93 µM; with NCI-H522 lung it was 6.09 µM; with MDA-MB-435 it was 3.38 µM; in the test on HCC-2998 colon, 10.5 µM; in the test with LOX IMVI melanoma it was 10.8 µM; with U251 CNS, 8.34 µM. Also, the TGI is 11.7 µM in the test on RPMI-8226 leukemia, 2.85 µM in the test on SK-MEL-5 melanoma and 18.7 µM in the test with CAKI-1 renal.
Take `Nc1ncn([C@H]2CC(O)[C@@H](CO)S2)c(=O)n1` (stereo partly specified): the GI50 with UACC-62 melanoma was 8.51 µM; in the test on NCI-H522 lung it was 0.154 µM; with MDA-MB-435, 0.783 µM; in the test on HCC-2998 colon, 2.44 µM; with LOX IMVI melanoma it was 4.48 µM; with U251 CNS, 12.7 µM. The GI50 in the test on RPMI-8226 leukemia is 6.22 µM; with SK-MEL-5 melanoma, 1.17 µM; with CAKI-1 renal, 1.99 µM. The TGI in the test with UACC-62 melanoma, in the test on NCI-H522 lung, in the test with MDA-MB-435, in the test with HCC-2998 colon, in the test with LOX IMVI melanoma and with U251 CNS was greater than 100 µM each time. Besides, the TGI with RPMI-8226 leukemia, in the test with SK-MEL-5 melanoma and in the test with CAKI-1 renal was greater than 100 µM in each case.
As for `CC(C)(O)C1COC2=C1C(=O)c1ccccc1C2=O` (stereo unspecified), the TGI in the test with UACC-62 melanoma was 42.9 µM; with NCI-H522 lung, greater than 100 µM; in the test with MDA-MB-435, 44.6 µM; in the test with HCC-2998 colon, greater than 100 µM; in the test with LOX IMVI melanoma it was 41.9 µM; in the test with U251 CNS it was greater than 100 µM. Also, the TGI is greater than 100 µM in the test with RPMI-8226 leukemia, 57.4 µM in the test with SK-MEL-5 melanoma and greater than 100 µM with CAKI-1 renal.
Take `O=C(/C=C/c1ccccc1)c1ccc(Cl)cc1Cl`: the TGI was found to be 30 µM with UACC-62 melanoma; 28.3 µM with NCI-H522 lung; 40.9 µM in the test with HCC-2998 colon; 34.6 µM in the test with U251 CNS; 28.4 µM in the test with RPMI-8226 leukemia; 31.4 µM in the test with SK-MEL-5 melanoma. This molecule also displayed a TGI in the test on CAKI-1 renal of 64 µM.
As to `N#C/C(=C\c1ccc(O)cc1)C(N)=O`, the TGI with UACC-62 melanoma, in the test with NCI-H522 lung, in the test with HCC-2998 colon, with LOX IMVI melanoma, with U251 CNS and in the test on RPMI-8226 leukemia was greater than 100 µM throughout. Further, the TGI in the test on SK-MEL-5 melanoma and in the test on CAKI-1 renal was greater than 100 µM throughout. For the same molecule, the GI50 with NCI-H522 lung was 97.5 µM and 44 µM.
On to `COc1cc2c(c(OC)c1OC)-c1cc(I)c(O)cc1[C@@H](NC(C)=O)CC2`, for which the GI50 is 0.0448 µM with UACC-62 melanoma; 0.0484 µM in the test on NCI-H522 lung; 0.0655 µM in the test with HCC-2998 colon; 0.075 µM with LOX IMVI melanoma; 0.0483 µM in the test with U251 CNS; 0.035 µM in the test on RPMI-8226 leukemia. The GI50 with SK-MEL-5 melanoma is 0.0358 µM; with CAKI-1 renal it was 3.58 µM. The TGI was greater than 100 µM in the test on UACC-62 melanoma; greater than 100 µM with NCI-H522 lung; 3 µM in the test on HCC-2998 colon; greater than 100 µM in the test with LOX IMVI melanoma; greater than 100 µM with U251 CNS; 2.53 µM in the test with RPMI-8226 leukemia. Further, the TGI with SK-MEL-5 melanoma is 0.244 µM; in the test with CAKI-1 renal it was greater than 100 µM.
On to `COc1cc2ncn(-c3cc(OCc4ccccc4C(F)(F)F)c(C(N)=O)s3)c2cc1OC`, for which the GI50 is 0.168 µM with UACC-62 melanoma; 0.168 µM in the test on NCI-H522 lung; 0.0552 µM in the test on MDA-MB-435; 0.276 µM in the test with HCC-2998 colon; 0.139 µM in the test on LOX IMVI melanoma; 0.206 µM in the test with U251 CNS. The GI50 is 0.278 µM with RPMI-8226 leukemia, 0.106 µM with SK-MEL-5 melanoma and 3.88 µM in the test on CAKI-1 renal. The TGI in the test on UACC-62 melanoma was greater than 8.39 µM; in the test on NCI-H522 lung, 3.67 µM; in the test on MDA-MB-435, 0.282 µM; in the test with HCC-2998 colon, greater than 25 µM; with LOX IMVI melanoma it was greater than 25 µM; with U251 CNS, greater than 19.3 µM. In addition, the TGI in the test with RPMI-8226 leukemia, with SK-MEL-5 melanoma and with CAKI-1 renal was greater than 25 µM in each case.
Take `COC(=O)C(=O)C(C(=O)C(=O)Nc1ccc([N+](=O)[O-])cc1)c1nc2ccccc2[nH]c1=O` (stereo unspecified): the TGI with UACC-62 melanoma, in the test with NCI-H522 lung, with LOX IMVI melanoma, in the test on U251 CNS, in the test on RPMI-8226 leukemia and with SK-MEL-5 melanoma was greater than 100 µM throughout. Moreover, in the test with CAKI-1 renal, the TGI was greater than 100 µM.
On to `O=C(N/C(=C\c1ccc([N+](=O)[O-])cc1)c1nc2ccccc2s1)c1ccccc1`, for which the TGI in the test on UACC-62 melanoma is 48.3 µM; in the test with HCC-2998 colon, greater than 100 µM; in the test with LOX IMVI melanoma it was 46.5 µM; with U251 CNS, greater than 100 µM; with RPMI-8226 leukemia, 44.1 µM; with SK-MEL-5 melanoma it was 63.5 µM. This molecule also gave a TGI with CAKI-1 renal of 95.8 µM.
Regarding `N=C(N)c1ccc2oc3ccc(C(=N)N)cc3c(=O)c2c1`, the TGI with UACC-62 melanoma, with NCI-H522 lung, with MDA-MB-435, in the test with HCC-2998 colon, in the test with U251 CNS and with RPMI-8226 leukemia was greater than 100 µM each time. The TGI with SK-MEL-5 melanoma and with CAKI-1 renal was greater than 100 µM throughout.
On to `Cc1cc(N(CCC#N)CCC#N)ccc1/C=C(\NC(=O)/C=C/c1ccccc1)C(=O)Nc1ccccc1Cl`, for which the TGI in the test with UACC-62 melanoma, in the test with HCC-2998 colon, in the test on LOX IMVI melanoma, in the test with U251 CNS, with RPMI-8226 leukemia and in the test on SK-MEL-5 melanoma was greater than 100 µM throughout. Also, the TGI in the test on CAKI-1 renal is greater than 100 µM.
As to `CCc1ccc2c(c1)C(=O)c1c-2n(CCCN)c(=O)c2cc(OC)c(OC)cc12`, the GI50 with UACC-62 melanoma is 1.8 µM; in the test on NCI-H522 lung, 1.59 µM; in the test with MDA-MB-435, 1.97 µM; in the test on HCC-2998 colon, 1.63 µM; in the test on LOX IMVI melanoma, 1.36 µM; in the test on U251 CNS, 1.69 µM. Further, the values for the GI50 with RPMI-8226 leukemia and in the test with SK-MEL-5 melanoma were 1.41 µM and 1.44 µM, respectively. Besides, the TGI in the test on UACC-62 melanoma is 3.32 µM; in the test on NCI-H522 lung it was 3.38 µM; in the test on MDA-MB-435, 3.55 µM; in the test on HCC-2998 colon, 3.05 µM; in the test with LOX IMVI melanoma, 2.73 µM; in the test on U251 CNS it was 3.11 µM. In addition, the TGI came to 3.02 µM in the test on RPMI-8226 leukemia and 2.8 µM in the test with SK-MEL-5 melanoma.
Regarding `COc1ccc(/C=C/C(=O)c2c(-c3ccccc3)nn(C)c(=O)c2N2CC2C)cc1` (stereo unspecified), the TGI is 71.2 µM in the test on UACC-62 melanoma; 67.1 µM in the test on NCI-H522 lung; 66.6 µM with HCC-2998 colon; 34 µM in the test on LOX IMVI melanoma; 85.6 µM in the test on U251 CNS; greater than 100 µM in the test with SK-MEL-5 melanoma. This molecule also showed a TGI with CAKI-1 renal greater than 100 µM.
For `Cc1ccc(C)c2c1C1CCCCC3(OCCCO3)C21O` (stereo unspecified), the TGI with UACC-62 melanoma, in the test with NCI-H522 lung, in the test on HCC-2998 colon, in the test on LOX IMVI melanoma, in the test on U251 CNS and in the test with RPMI-8226 leukemia was greater than 100 µM each time. The TGI in the test with SK-MEL-5 melanoma and with CAKI-1 renal was greater than 100 µM each time.
Consider `O=P(CN1CCOCC1)(c1ccccc1)c1ccccc1`, for which the TGI in the test on UACC-62 melanoma, in the test on NCI-H522 lung, in the test on LOX IMVI melanoma, in the test with U251 CNS, in the test on RPMI-8226 leukemia and in the test on SK-MEL-5 melanoma was greater than 100 µM throughout. The TGI in the test on CAKI-1 renal is greater than 100 µM.
On to `CCOc1ccc(C2=NN(CC)C(=O)C(C3C(=O)N(c4ccccc4)N=C3C)C2)cc1` (stereo unspecified), for which the TGI with UACC-62 melanoma, with NCI-H522 lung, with HCC-2998 colon, with LOX IMVI melanoma, with U251 CNS and in the test on RPMI-8226 leukemia was greater than 100 µM each time. For the same molecule, the TGI in the test on SK-MEL-5 melanoma and in the test on CAKI-1 renal was greater than 100 µM in each case.
Take `COc1cc2c(oc(=O)c3c4occc4cc(OC)c23)c2cccc(O)c12`: the TGI in the test on UACC-62 melanoma, in the test with NCI-H522 lung, in the test with HCC-2998 colon, in the test on LOX IMVI melanoma, in the test on U251 CNS and in the test with RPMI-8226 leukemia was greater than 100 µM throughout. For the same molecule, the TGI in the test with SK-MEL-5 melanoma and in the test with CAKI-1 renal was greater than 100 µM each time.

These data come from PubChem BioAssay (NCI).
